From US20240342161A1, “BISBENZYLISOQUINOLINES AS CONDITIONING AGENTS FOR IMMUNE THERAPY” (priority 2023, published 2024)
“And” between values parts separate entries of the source, which are not always exact repeats. Identical values can stand only once.

Key:
β-catenin = β-catenin protein level in K562 cell extracts by western blot; assay type: cell-based, human
Experimental: The second portion was to quantitate the levels of β-catenin protein by western blot. TET's ability in an in vitro assay to reduce β-catenin expression was tested in human erythroleukemic (K562) cells. Testing was conducted by Alamo Laboratories, San Antonia, TX.
Briefly, the method to quantitate β-catenin protein by western blot was as follows: Extracts of K562 cells (untreated and treated with various concentrations of tetrandrine) were concentrated to 0.4 ml using Centricon-3 column to yield a protein concentration of approximately 2 mg/ml. Samples were mixed with 5× Laemmli buffer and loaded on 8-16% Tris-Glycine gradient gel, then polyacrylamide gel electrophoresis (PAGE) was run at 85 volts for 100 minutes at 6° C. and proteins were transferred on PVDF membrane at 70 Volts for 85 minutes at 8° C. Membrane was blocked with 5% milk in Tris-buffered Saline containing 0.1% TW-20 (TBST). Membrane was incubated with primary antibody for 18 hours at 4° C. followed by 3 washes, 5 minutes each, with TBST and incubated with secondary antibody in TBST for 2 hours at 25° C. The membrane was washed again with TBST as described above and incubated with ECL-2 substrate for 5 minutes and scanned on Kodak Image Station. After scan, blot was stripped of primary and secondary antibodies and re-probed with anti-beta Actin antibody as described above. Protein bands in WB images were quantitated using Molecular Imaging software pack MIS-4.0 software and tabulated in Excel spreadsheet.

[1] = test system: CML colonies, secondary clonal growth; assay: Replating assay (secondary clonal growth of CML colonies); assay type: cell-based, human; details: colonies from original cultures with ES-3000 @ 10 μM; 24 wells
bcr-abl = assay: qPCR assay for bcr-abl in plucked CML colonies; assay type: cell-based, human; details: Secondary colonies, 10 μM, number of colonies; listed as Tetrandrine
Experimental: To determine whether a colony was normal (bcr-abl negative and abl positive) or diseased (bcr-abl and abl positive), a TaqMan®-based qPCR test was used. In order to score the colonies positive or negative, the following scoring strategy was performed. All colonies were assayed in duplicate for each target. If a singleton reaction yielded a Ct then the reaction scored a 1. If no Ct was recorded, a score of 0 was given. From here, we used a logic test to score the colonies into four different categories: bcr-abl and abl, abl only, bcr-abl only or both negative. In order to be placed in a category, a colony must score a 1 in both reactions. However, if a colony only scored a 1 for one out of the two reactions, this colony was removed from the analysis. […] Alternatively, if a colony scored a 1 in only both of the bcr-abl reactions or a 1 in only both the abl reactions, the colony was placed in the bcr-abl only or abl only category, respectively. If the colony scored a 0 for both targets (bcr-abl and abl) then the colony was placed in the both negative category.
In total 48 primary colonies and 31 secondary replated colonies were assessed for bcr-abl and abl using qPCR. […] Thirteen secondary colonies treated with Tetrandrine at 10 μM were assessed.

CAMKII gamma = target: T1, CAMKII gamma (Homo sapiens, UniProt Q13555); assay: CAMKII gamma kinase activity (ADP Glo); assay type: biochemical; details: for units: duplicate reactions
T1 construct: purchased Promega V3531
T1 sequence (Q13555 whole entry): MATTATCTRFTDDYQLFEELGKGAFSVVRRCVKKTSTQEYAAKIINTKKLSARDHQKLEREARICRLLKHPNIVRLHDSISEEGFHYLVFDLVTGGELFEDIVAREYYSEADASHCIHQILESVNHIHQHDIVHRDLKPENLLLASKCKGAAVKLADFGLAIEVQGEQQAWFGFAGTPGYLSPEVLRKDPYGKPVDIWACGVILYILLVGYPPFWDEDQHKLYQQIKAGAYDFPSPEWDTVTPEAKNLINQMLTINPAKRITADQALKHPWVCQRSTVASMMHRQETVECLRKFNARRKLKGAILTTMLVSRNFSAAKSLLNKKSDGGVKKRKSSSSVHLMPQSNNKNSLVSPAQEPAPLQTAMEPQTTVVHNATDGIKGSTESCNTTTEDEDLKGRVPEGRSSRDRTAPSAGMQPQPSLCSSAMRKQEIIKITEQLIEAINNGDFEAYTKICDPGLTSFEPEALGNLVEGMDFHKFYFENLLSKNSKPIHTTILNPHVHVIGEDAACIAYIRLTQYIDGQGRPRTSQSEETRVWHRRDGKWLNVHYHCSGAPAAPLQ
Experimental: An enzymatic study was conducted to evaluate the inhibition of CAMKII gamma by ES-3000 (Tetrandrine). CAMKII gamma kinase activity was measured using […] purchased from Promega following the Promega protocol. CAMKII enzyme system purchased from Promega (V3531). ADP Glo was used for detection. Assay optimized for linearity of protein and time. Conditions for inhibitor screening 25 ng CAMKII, 20 min. incubations, inhibitor or DMSO (5%) at RT in 20 uL total volume. Inhibitor, ATP (10 or 50 μM), substrates and buffer added to tubes and reactions started with enzyme. […] Reactions terminated at 20 min. by adding ADP Glo reaction following manufactures instructions. All reactions were done in duplicate. Calculations of percent (%) inhibition determined by dividing the mean activity at each condition by the mean of the DMSO control times 100.

P-glycoprotein (P-gp) = P-glycoprotein (P-gp) (Homo sapiens, UniProt P08183); details: cited from earlier work
P-glycoprotein (P-gp), sequence (P08183 whole entry): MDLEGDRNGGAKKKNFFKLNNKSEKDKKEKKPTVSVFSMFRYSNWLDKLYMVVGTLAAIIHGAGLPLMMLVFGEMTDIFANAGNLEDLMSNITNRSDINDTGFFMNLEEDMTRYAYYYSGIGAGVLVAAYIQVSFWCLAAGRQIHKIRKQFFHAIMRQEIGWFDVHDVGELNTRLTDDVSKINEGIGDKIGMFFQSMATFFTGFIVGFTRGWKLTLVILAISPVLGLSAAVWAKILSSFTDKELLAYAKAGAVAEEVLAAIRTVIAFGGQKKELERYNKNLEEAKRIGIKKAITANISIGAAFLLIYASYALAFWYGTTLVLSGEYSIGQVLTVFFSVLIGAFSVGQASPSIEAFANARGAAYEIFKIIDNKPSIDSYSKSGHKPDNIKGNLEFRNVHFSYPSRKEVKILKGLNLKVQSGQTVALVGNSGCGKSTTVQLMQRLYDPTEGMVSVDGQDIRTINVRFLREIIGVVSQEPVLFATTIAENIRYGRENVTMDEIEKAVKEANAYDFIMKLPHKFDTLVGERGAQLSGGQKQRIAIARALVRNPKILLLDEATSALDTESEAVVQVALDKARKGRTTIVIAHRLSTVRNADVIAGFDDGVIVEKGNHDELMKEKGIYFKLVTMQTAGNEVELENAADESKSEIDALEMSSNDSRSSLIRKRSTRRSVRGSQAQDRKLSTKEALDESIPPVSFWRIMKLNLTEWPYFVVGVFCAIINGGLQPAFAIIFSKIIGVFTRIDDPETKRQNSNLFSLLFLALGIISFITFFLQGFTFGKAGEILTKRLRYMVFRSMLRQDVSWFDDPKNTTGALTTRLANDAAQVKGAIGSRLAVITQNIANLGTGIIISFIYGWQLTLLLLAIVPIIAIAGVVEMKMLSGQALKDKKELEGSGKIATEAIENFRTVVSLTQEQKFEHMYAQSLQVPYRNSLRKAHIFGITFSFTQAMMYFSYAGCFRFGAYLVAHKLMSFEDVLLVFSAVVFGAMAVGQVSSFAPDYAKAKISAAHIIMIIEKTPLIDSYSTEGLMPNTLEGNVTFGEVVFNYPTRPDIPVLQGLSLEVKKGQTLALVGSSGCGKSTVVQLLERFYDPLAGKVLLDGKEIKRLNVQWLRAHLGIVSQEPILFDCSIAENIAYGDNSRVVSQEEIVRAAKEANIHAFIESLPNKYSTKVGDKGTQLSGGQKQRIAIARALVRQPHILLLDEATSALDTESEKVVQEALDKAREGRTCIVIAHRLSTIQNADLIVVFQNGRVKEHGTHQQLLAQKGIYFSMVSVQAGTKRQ

hERG = hERG (Homo sapiens, UniProt Q12809); assay: hERG inhibition, IonWorks HT electrophysiology in CHO cells stably transfected with hERG
hERG, sequence (Q12809 whole entry): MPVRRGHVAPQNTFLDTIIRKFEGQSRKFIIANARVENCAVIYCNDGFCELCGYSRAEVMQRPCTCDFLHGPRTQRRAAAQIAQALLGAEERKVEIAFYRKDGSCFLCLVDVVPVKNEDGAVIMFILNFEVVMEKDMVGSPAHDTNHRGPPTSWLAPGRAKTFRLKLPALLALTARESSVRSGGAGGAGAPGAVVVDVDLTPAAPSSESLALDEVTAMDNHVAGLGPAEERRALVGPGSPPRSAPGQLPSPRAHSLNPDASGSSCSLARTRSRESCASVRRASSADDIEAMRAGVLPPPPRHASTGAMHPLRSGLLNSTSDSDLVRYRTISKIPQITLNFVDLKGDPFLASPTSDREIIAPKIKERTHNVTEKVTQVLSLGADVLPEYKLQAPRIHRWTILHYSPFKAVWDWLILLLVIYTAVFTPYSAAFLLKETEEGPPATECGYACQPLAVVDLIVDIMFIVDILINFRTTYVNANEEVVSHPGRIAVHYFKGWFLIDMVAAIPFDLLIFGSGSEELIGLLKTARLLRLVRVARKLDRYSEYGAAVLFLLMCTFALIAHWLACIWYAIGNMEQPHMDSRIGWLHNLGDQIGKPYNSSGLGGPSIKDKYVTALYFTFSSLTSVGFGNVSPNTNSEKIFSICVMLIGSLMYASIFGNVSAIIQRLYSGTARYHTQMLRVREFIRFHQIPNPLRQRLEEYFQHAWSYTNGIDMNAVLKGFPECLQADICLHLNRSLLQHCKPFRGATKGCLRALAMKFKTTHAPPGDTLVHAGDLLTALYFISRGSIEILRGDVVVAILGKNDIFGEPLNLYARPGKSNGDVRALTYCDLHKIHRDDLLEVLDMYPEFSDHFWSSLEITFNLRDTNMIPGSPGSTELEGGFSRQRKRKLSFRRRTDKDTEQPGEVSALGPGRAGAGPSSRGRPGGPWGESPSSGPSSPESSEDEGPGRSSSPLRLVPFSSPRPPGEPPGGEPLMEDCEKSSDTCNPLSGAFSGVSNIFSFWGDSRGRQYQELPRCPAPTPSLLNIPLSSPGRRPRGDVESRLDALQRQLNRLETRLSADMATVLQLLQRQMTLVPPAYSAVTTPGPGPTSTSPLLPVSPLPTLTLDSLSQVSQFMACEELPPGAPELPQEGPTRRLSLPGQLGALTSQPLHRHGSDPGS

With “6,6′,7,12-tetramethoxy-2,2′-dimethyl-berbaman [ES-3000]” the β-catenin band (β-catenin; K562 cells treated with 0 to 10 uM) was “evident”, the “convincing β-catenin band” value (β-catenin; K562 cells treated with 20 and 40 uM) was “absent” and the “β-catenin level, result in words” value (β-catenin; K562 cells, 0 to 40 uM, 24 hours) was “lowers the β-catenin level in K562 cells in a dose dependent manner”. The “Replating colony count per well” value [1] was 1, the “bcr-abl and abl colonies” value (bcr-abl) was “No colonies scored positive for bcr-abl and abl” and the mean (CAMKII gamma; 10 uM ATP, inhibitor 30 uM) was 3.09. For the same substance, the units (CAMKII gamma; 10 uM ATP, inhibitor 30 uM) was 2.75 units and 3.43 units, the mean (CAMKII gamma; 10 uM ATP, inhibitor 100 uM) was 2.87 and the units (CAMKII gamma; 10 uM ATP, inhibitor 100 uM) was 2.5 units and 3.24 units. The mean (CAMKII gamma; 10 uM ATP, inhibitor 250 uM) was 0.41, the units (CAMKII gamma; 10 uM ATP, inhibitor 250 uM) was 0.34 units and 0.48 units and the mean (CAMKII gamma; 50 uM ATP, inhibitor 30 uM) was 10.55. For the same substance, the units (CAMKII gamma; 50 uM ATP, inhibitor 30 uM) was 10.4 units and 10.7 units, the mean (CAMKII gamma; 50 uM ATP, inhibitor 100 uM) was 7.955 and the units (CAMKII gamma; 50 uM ATP, inhibitor 100 uM) was 8.81 units and 7.1 units. The “CAMKII gamma kinase activity inhibition, result in words” value (CAMKII gamma; 30-250 uM, 10 or 50 μM ATP) was “inhibited CAMKII gamma kinase activity in a dose dependent manner”, the “substrate of P-gp” value (P-glycoprotein (P-gp)) was “not a substrate of P-gp” and the “function of P-gp” value (P-glycoprotein (P-gp); without altering the protein expression level of Pgp) was “directly inhibits the function of P-gp in a dose-dependent manner”. The “plasma levels above which QT prolongation might be expected in subjects” value (hERG; interpretation from hERG IC50 and protein binding) was “above 249 ng/mL” and the “safety for cardiac conduction-related toxicity (hERG IC50 versus human Cmax)” value (hERG; utilizing Cmax from previous human clinical experience) was 13 fold.
